Experimental data taken from PubChem BioAssay AID2060627 (Molecular Pharmacology Branch, DTP, NCI, 2025).
“And” between values parts separate entries of the source, which are not always exact repeats. Equal values may be shown once.

Tested on: 156681-154-R-J1-PDC complex spheroid viability
Assay: Anticancer human tumor 156681-154-R-J1-PDC patient-derived melanoma cell line growth inhibition [CLK]
Conditions: for viability, T/C: stronger effect = lower value
Outline: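 Multi-cell-type spheroids combined patient-derived tumor cells with HUVEC endothelial cells and human mesenchymal stem cells. Paired agents were dosed in half-log steps down from about clinical Cmax, or from 10 microM where Cmax was unknown.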

[1] = curve of first compound, second compound 0.0316 µM
[2] = curve of first compound, second compound 0.1 µM
[3] = curve of first compound, second compound 0.316 µM
[4] = curve of first compound, second compound 1 µM
[5] = curve of first compound, second compound 3.16 µM
[6] = curve of first compound, second compound 10 µM
[7] = second compound 0.0316 µM, first compound 0.0316 µM
[8] = second compound 0.0316 µM, first compound 0.1 µM
[9] = second compound 0.0316 µM, first compound 0.316 µM
[10] = second compound 0.0316 µM, first compound 1 µM
[11] = second compound 0.0316 µM, first compound 3.16 µM
[12] = second compound 0.0316 µM, first compound 10 µM
[13] = second compound 0.1 µM, first compound 0.0316 µM
[14] = second compound 0.1 µM, first compound 0.1 µM
[15] = second compound 0.1 µM, first compound 0.316 µM
[16] = second compound 0.1 µM, first compound 1 µM
[17] = second compound 0.1 µM, first compound 3.16 µM
[18] = second compound 0.1 µM, first compound 10 µM
[19] = second compound 0.316 µM, first compound 0.0316 µM
[20] = second compound 0.316 µM, first compound 0.1 µM
[21] = second compound 0.316 µM, first compound 0.316 µM
[22] = second compound 0.316 µM, first compound 1 µM
[23] = second compound 0.316 µM, first compound 3.16 µM
[24] = second compound 0.316 µM, first compound 10 µM
[25] = second compound 1 µM, first compound 0.0316 µM
[26] = second compound 1 µM, first compound 0.1 µM
[27] = second compound 1 µM, first compound 0.316 µM
[28] = second compound 1 µM, first compound 1 µM
[29] = second compound 1 µM, first compound 3.16 µM
[30] = second compound 1 µM, first compound 10 µM
[31] = second compound 3.16 µM, first compound 0.0316 µM
[32] = second compound 3.16 µM, first compound 0.1 µM
[33] = second compound 3.16 µM, first compound 0.316 µM
[34] = second compound 3.16 µM, first compound 1 µM
[35] = second compound 3.16 µM, first compound 3.16 µM
[36] = second compound 3.16 µM, first compound 10 µM
[37] = second compound 10 µM, first compound 0.0316 µM
[38] = second compound 10 µM, first compound 0.1 µM
[39] = second compound 10 µM, first compound 0.316 µM
[40] = second compound 10 µM, first compound 1 µM
[41] = second compound 10 µM, first compound 3.16 µM
[42] = second compound 10 µM, first compound 10 µM
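Also: spheroids exposed to the agents for seven days.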
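For viability, T/C in this document: 100% = DMSO vehicle control viability.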

Compound: CC1(C)CCC(CN2CCN(c3ccc(C(=O)NS(=O)(=O)c4ccc(NCC5CCOCC5)c([N+](=O)[O-])c4)c(Oc4cnc5[nH]ccc5c4)c3)CC2)=C(c2ccc(Cl)cc2)C1 + CNC(=O)c1ccc(Nc2nc(OC3CCCC3)c3c(-c4ccc5nc(C)oc5c4)c[nH]c3n2)c(OC)c1
- IC50 [1]: 5040 nM
- IC50 [2]: 4190 nM
- IC50 [3]: 3250 nM
- IC50 [4]: 1860 nM
- IC50 [5]: < 31.6 nM
- IC50 [6]: < 31.6 nM
- viability, T/C [7]: 92.9%
- viability, T/C [8]: 101%
- viability, T/C [9]: 103%
- viability, T/C [10]: 96.8%
- viability, T/C [11]: 83%
- viability, T/C [12]: 1.52%
- viability, T/C [13]: 66.6%
- viability, T/C [14]: 80%
- viability, T/C [15]: 82%
- viability, T/C [16]: 70.4%
- viability, T/C [17]: 65.8%
- viability, T/C [18]: 0.92%
- viability, T/C [19]: 67.1%
- viability, T/C [20]: 72.9%
- viability, T/C [21]: 65.2%
- viability, T/C [22]: 74.1%
- viability, T/C [23]: 51.2%
- viability, T/C [24]: 0.88%
- viability, T/C [25]: 59.7%
- viability, T/C [26]: 62.7%
- viability, T/C [27]: 46.6%
- viability, T/C [28]: 57%
- viability, T/C [29]: 44.8%
- viability, T/C [30]: 2.29%
- viability, T/C [31]: 42.6%
- viability, T/C [32]: 37.8%
- viability, T/C [33]: 36.2%
- viability, T/C [34]: 50.4%
- viability, T/C [35]: 32.1%
- viability, T/C [36]: 1.28%
- viability, T/C [37]: 46.6%
- viability, T/C [38]: 34.7%
- viability, T/C [39]: 39.9%
- viability, T/C [40]: 41.4%
- viability, T/C [41]: 30.2%
- viability, T/C [42]: 0.58%

Compound: NC(=O)C(=Cn1cnc(-c2cc(C(F)(F)F)cc(C(F)(F)F)c2)n1)c1cncnc1 + CN1CCN(c2cc(C(=O)Nc3cc4cc(-c5cnn(C)c5)ccc4cn3)ccn2)CC1
- IC50 [1]: 61 nM
- IC50 [2]: 31.3 nM
- IC50 [3]: < 9.49 nM
- IC50 [4]: < 9.49 nM
- IC50 [5]: < 9.49 nM
- IC50 [6]: < 9.49 nM
- viability, T/C (second compound 0.0316 µM, first compound 0.00949 µM): 93.5%
- viability, T/C (second compound 0.0316 µM, first compound 0.03 µM): 63.4%
- viability, T/C (second compound 0.0316 µM, first compound 0.0949 µM): 45.5%
- viability, T/C (second compound 0.0316 µM, first compound 0.3 µM): 13.1%
- viability, T/C (second compound 0.0316 µM, first compound 0.949 µM): 4.9%
- viability, T/C (second compound 0.0316 µM, first compound 3 µM): 3.07%
- viability, T/C (second compound 0.1 µM, first compound 0.00949 µM): 64.3%
- viability, T/C (second compound 0.1 µM, first compound 0.03 µM): 50.4%
- viability, T/C (second compound 0.1 µM, first compound 0.0949 µM): 26.6%
- viability, T/C (second compound 0.1 µM, first compound 0.3 µM): 6.93%
- viability, T/C (second compound 0.1 µM, first compound 0.949 µM): 2.72%
- viability, T/C (second compound 0.1 µM, first compound 3 µM): 1.03%
- viability, T/C (second compound 0.316 µM, first compound 0.00949 µM): 10.8%
- viability, T/C (second compound 0.316 µM, first compound 0.03 µM): 8.6%
- viability, T/C (second compound 0.316 µM, first compound 0.0949 µM): 1.88%
- viability, T/C (second compound 0.316 µM, first compound 0.3 µM): 0.07%
- viability, T/C (second compound 0.316 µM, first compound 0.949 µM): 1.67%
- viability, T/C (second compound 0.316 µM, first compound 3 µM): 1.86%
- viability, T/C (second compound 1 µM, first compound 0.00949 µM): 0.14%
- viability, T/C (second compound 1 µM, first compound 0.03 µM): 0.33%
- viability, T/C (second compound 1 µM, first compound 0.0949 µM): 0.11%
- viability, T/C (second compound 1 µM, first compound 0.3 µM): 0.39%
- viability, T/C (second compound 1 µM, first compound 0.949 µM): 2.63%
- viability, T/C (second compound 1 µM, first compound 3 µM): 0.65%
- viability, T/C (second compound 3.16 µM, first compound 0.00949 µM): 0.07%
- viability, T/C (second compound 3.16 µM, first compound 0.03 µM): 2.18%
- viability, T/C (second compound 3.16 µM, first compound 0.0949 µM): 2.61%
- viability, T/C (second compound 3.16 µM, first compound 0.3 µM): 1.32%
- viability, T/C (second compound 3.16 µM, first compound 0.949 µM): 1.52%
- viability, T/C (second compound 3.16 µM, first compound 3 µM): 0.84%
- viability, T/C (second compound 10 µM, first compound 0.00949 µM): 0.07%
- viability, T/C (second compound 10 µM, first compound 0.03 µM): 1.56%
- viability, T/C (second compound 10 µM, first compound 0.0949 µM): 1.25%
- viability, T/C (second compound 10 µM, first compound 0.3 µM): 2.65%
- viability, T/C (second compound 10 µM, first compound 0.949 µM): 2.11%
- viability, T/C (second compound 10 µM, first compound 3 µM): 0.95%

Compound: C=C(F)C(=O)N1CCN(c2nc(OCC3CCCN3C)nc3c2CCN(c2cccc4cccc(Cl)c24)C3)CC1CC#N (configuration not stated) + CN1CCN(c2cc(C(=O)Nc3cc4cc(-c5cnn(C)c5)ccc4cn3)ccn2)CC1
- IC50 [1]: 2590 nM
- IC50 [2]: 1770 nM
- IC50 [3]: < 31.6 nM
- IC50 [4]: < 31.6 nM
- IC50 [5]: < 31.6 nM
- IC50 [6]: < 31.6 nM
- viability, T/C [7]: 101%
- viability, T/C [8]: 107%
- viability, T/C [9]: 108%
- viability, T/C [10]: 81.1%
- viability, T/C [11]: 44%
- viability, T/C [12]: 0.43%
- viability, T/C [13]: 94.3%
- viability, T/C [14]: 94.6%
- viability, T/C [15]: 91.7%
- viability, T/C [16]: 79.5%
- viability, T/C [17]: 20%
- viability, T/C [18]: 0.6%
- viability, T/C [19]: 22.1%
- viability, T/C [20]: 24.1%
- viability, T/C [21]: 23.3%
- viability, T/C [22]: 24.7%
- viability, T/C [23]: 6.76%
- viability, T/C [24]: 1.76%
- viability, T/C [25]: 0.16%
- viability, T/C [26]: 0.32%
- viability, T/C [27]: 0.25%
- viability, T/C [28]: 0.59%
- viability, T/C [29]: 0.1%
- viability, T/C [30]: 0.24%
- viability, T/C [31]: 0.12%
- viability, T/C [32]: 1.74%
- viability, T/C [33]: 1.8%
- viability, T/C [34]: 0.12%
- viability, T/C [35]: 0.36%
- viability, T/C [36]: 1.56%
- viability, T/C [37]: 0.17%
- viability, T/C [38]: 0.19%
- viability, T/C [39]: 1.71%
- viability, T/C [40]: 0.23%
- viability, T/C [41]: 0.23%
- viability, T/C [42]: 0.8%

Compound: CC(Nc1ccc2c(c1)OCCn1cc(N3C(=O)OCC3C(F)F)nc1-2)C(N)=O (configuration not stated) + CN1CCN(c2cc(C(=O)Nc3cc4cc(-c5cnn(C)c5)ccc4cn3)ccn2)CC1
- IC50 [1]: 302 nM
- IC50 [2]: 241 nM
- IC50 [3]: < 31.6 nM
- IC50 [4]: < 31.6 nM
- IC50 [5]: < 31.6 nM
- IC50 [6]: < 31.6 nM
- viability, T/C [7]: 85.4%
- viability, T/C [8]: 67%
- viability, T/C [9]: 49.4%
- viability, T/C [10]: 34%
- viability, T/C [11]: 30%
- viability, T/C [12]: 20%
- viability, T/C [13]: 73.4%
- viability, T/C [14]: 65.6%
- viability, T/C [15]: 43.5%
- viability, T/C [16]: 29.9%
- viability, T/C [17]: 20%
- viability, T/C [18]: 13.7%
- viability, T/C [19]: 21.1%
- viability, T/C [20]: 15.7%
- viability, T/C [21]: 15%
- viability, T/C [22]: 6.71%
- viability, T/C [23]: 4.44%
- viability, T/C [24]: 4.8%
- viability, T/C [25]: 0.14%
- viability, T/C [26]: 0.42%
- viability, T/C [27]: 0.1%
- viability, T/C [28]: 0.05%
- viability, T/C [29]: 0.4%
- viability, T/C [30]: 0.2%
- viability, T/C [31]: 0.05%
- viability, T/C [32]: 1.73%
- viability, T/C [33]: 2.06%
- viability, T/C [34]: 0.08%
- viability, T/C [35]: 1.56%
- viability, T/C [36]: 1.84%
- viability, T/C [37]: 0.11%
- viability, T/C [38]: 0.1%
- viability, T/C [39]: 1.26%
- viability, T/C [40]: 2.64%
- viability, T/C [41]: 2.45%
- viability, T/C [42]: 1.35%

Compound: CCN1CCN(Cc2ccc(Nc3ncc(F)c(-c4cc(F)c5nc(C)n(C(C)C)c5c4)n3)nc2)CC1
- viability, T/C (compound 0.00316 µM): 82.6% and 81.5%
- viability, T/C (compound 0.01 µM): 82.6% and 92.4%
- viability, T/C (compound 0.0316 µM): 83.9% and 84.2%
- viability, T/C (compound 0.1 µM): 69.7% and 84.1%
- viability, T/C (compound 0.316 µM): 66.8% and 75.8%
- viability, T/C (compound 1 µM): 50.5% and 56.2%
- IC50 (curve of compound): > 1000 nM

Compound: COc1c(OCCCN2CCOCC2)ccc2c3n(c(=NC(=O)c4cnc(N)nc4)nc12)CCN3
- viability, T/C (compound 0.00316 µM): 73.2% and 68.2%
- viability, T/C (compound 0.01 µM): 69.9% and 67.5%
- viability, T/C (compound 0.0316 µM): 45.8% and 39.1%
- viability, T/C (compound 0.1 µM): 19.1% and 13.5%
- viability, T/C (compound 0.316 µM): 3.62% and 2.73%
- viability, T/C (compound 1 µM): 1.16% and 0.46%
- IC50 (curve of compound): 27 nM and 20.3 nM
